Measured values taken from patent publication US9458086B1, “Compositions and methods for adipocyte modulation” (University of South Florida (A Florida Non-Profit …, priority 2013, dated 2016).

Key:
Bcl2 = experiment: Western blot of Bcl2 in 3T3L1 cells; type: cell-based, mouse; conditions: SEAM treatment (200 nM)
Experimental: (§1) Mouse 3T3-L1 preadipocytes were purchased from ZenBio™ (Research Triangle Park, N.C., USA) and passaged as preconfluent cultures in DMEM high glucose (Invitrogen, Carlsbad, Calif.) with 10% newborn calf serum (Sigma-Aldrich, St. Louis, Mo.) at 37° C. and 10% CO2. Once confluent, cells were differentiated (day 0) in DMEM high glucose with 10% fetal bovine serum (Atlas Biological, Fort Collins, Colo.), 10 μg/mL bovine insulin (Sigma), […] dexamethasone (Sigma), and 0.5 mM isobutyl-1-methylxanthine (Sigma). On day 2, media was replaced with DMEM high glucose, 10% FBS, and bovine insulin. Day 4 and afterwards, cells were cultured in DMEM high glucose plus 10% FBS.
(§2) Protein lysates were obtained from 3T3L1 cells using lysis buffer containing proteases. Protein lysates (40 μg) were separated by SDS-PAGE with 10% gels. Proteins were electrophoretically transferred to nitrocellulose membranes, blocked with Tris-buffered saline containing 0.1% Tween 20 and 5% nonfat dried milk, washed, and incubated with a polyclonal anti-PARP (Upstate Biotechnology), anti-XIAP (AnaSpec), anti-Bcl2, anti-caspase 9 (Calbiochem), anti-Bcl-x (Santa Cruz Biotechnology), and anti-PKCδ (Cell Signaling) or antibody against the hinge-region of PKCδII (Patel lab (19)). […] Data was analyzed using AlphaView® software.

3T3L1 adipocytes [1] = experiment: Apoptosis assay, Annexin V-PI staining by flow cytometry; type: cell-based, mouse
Experimental: as §1
3T3L1 preadipocytes were cultured on 60 mm dishes as described above. For apoptosis assays, cells were serum-starved for 48 hours. Media were collected and cells were washed one time with HBSS and then trypsinized for 5.0 minutes. Five ml complete media was added to neutralize the trypsin. Media and washes were pooled and centrifuged at 1200 RPMS for five minutes. […] 400 μl binding buffer was added and cells were analyzed by flow cytometry within one hour Annexin V-FITC and PI fluorescence, which stains apoptotic cells, were measured using an Accuri C6 flow cytometer.

[2] = system: cPKCs: α, βI, βII, γ; nPKCs: η, ε, θ; aPKCs: ζ, λ; experiment: Immunoblotting for other PKC family isoforms (specificity); type: cell-based, mouse; conditions: SEAM treatment (200 nM)
Experimental: as §1
Protein lysates were obtained from 3T3L1 cells using lysis buffer containing proteases. Protein lysates (40 μg) were separated by SDS-PAGE with 10% gels. […] Data was analyzed using AlphaView® software.
3-hydroxystilbene was modified by Mannich coupling to add bis-diethylaminomethyl group (described in Example 1). Several synthetic stilbenoids with structural modifications to the basic resveratrol structure were evaluated. […]

PPARγ = experiment: Western blot of PPARγ (adipogenesis marker) in differentiating 3T3L1 cells; type: cell-based, mouse
Experimental: as §1
(§3) Protein lysates were obtained from 3T3L1 cells using lysis buffer containing proteases. Protein lysates (40 μg) were separated by SDS-PAGE with 10% gels. Proteins were electrophoretically transferred to nitrocellulose membranes, blocked with Tris-buffered saline containing 0.1% Tween 20 and 5% nonfat dried milk, washed, and incubated with a polyclonal anti-PARP (Upstate Biotechnology), anti-XIAP (AnaSpec), anti-Bcl2, anti-caspase 9 (Calbiochem), anti-Bcl-x (Santa Cruz Biotechnology), and anti-PKCδ (Cell Signaling) or antibody against the hinge-region of PKCδII (Patel lab (19)). This antibody is specific for PKCδII, as it recognizes the extended hinge region, which is absent in PKCδI (24). Other antibodies used are as follows: PPARγ, Akt, pAkt 473, TNFα, Adiponectin, p-BAD (S316), p-PTEN (Cell Signaling, Boston, Mass.), β-actin A5441 (Sigma). After incubation with anti-rabbit IgG-HRP, enhanced chemiluminescence (Pierce) was used for detection. FluorChem M™ (Protein Simple) imaging system was used to capture digital chemiluminescence images and process western blots. Data was analyzed using AlphaView® software.

PKCδI [3] = experiment: Western blot of PKCδI expression in differentiating 3T3L1 cells; type: cell-based, mouse
Experimental: as §1, §3

[4] = system: PKCδ exon 9 5′ splice site II; experiment: pSPL3-PKCδ splicing minigene RT-PCR; type: cell-based, mouse; conditions: 200 nM SEAM, 24 hours after minigene transfection, harvested on day 2
Description: The pSPL3 vector was modified to remove cryptic 5′ splice sites as described in a previous publication (25). The pSPL3 vector was digested with BamHI (in the MCS) and NheI. Primers to amplify genomic PKCδ from 3T3L1 cells flanked mouse PKCδ exon 9 and were designed to include the BclI site in the forward primer (in bold type) and BcuI site in the reverse primers (in bold type). The forward primer was designed to amplify 137 bp of 3′ intronic sequence such that the product contained the branch point and 3′ splice site and the reverse primer included 284 bp 5′ intronic sequence and included the 5′ splice site II of exon 9. The primers were: forward primer 5′ […] 3′ (SEQ ID NO:6); reverse primer 5′ […] 3′ (SEQ ID NO:7). The product was verified by sequencing and ligated into the digested pSPL3 vector. The overhangs of the selected restriction enzymes can hybridize and this enabled cloning of the PCR product in the proper orientation. The resulting pSPL3-PKCδ minigene was verified by restriction digestion and sequencing.
Splicing minigenes are advantageous to study alternative splicing events without influence from endogenous factors. […] Utilization of 5′ splice site I on exon 9 gave rise to PKCδI while utilization of downstream 5′ splice site II gave rise to PKCδII. After 24 hours, the cells were treated with 200 nM SEAM. […]

3T3L1 cells = experiment: Cytotoxicity assay / cell viability; type: cell-based, mouse; conditions: 200 nM SEAM in 3T3L1 cells
Experimental: WST-1 (Roche Molecular Biochemicals, IN) was added to 3T3L1 cells (in triplicate) that are treated without or with SEAM to a final concentration of 10% (vol/vol). Cells were incubated for 2 hours at 37° C. The formazon dye produced by viable cells was quantified using a spectrophotometer set at a wavelength of 440 nm and absorbance recorded for each well (reference wavelength, 690 nm).
Immunoblotting for PPARγ and adiponectin was also performed to determine whether SEAM affected differentiation of 3T3L1 cells. […] Total apoptosis was measured by flow cytometry using Annexin V-PI staining (FIG. 8d). To determine whether SEAM was toxic to cells, cell viability was evaluated upon treatment of 200 nM SEAM in 3T3L1 cells. Cytotoxicity was measured using the […] assay. This assay measures the reducing potential of the cell using a colorimetric reaction. Viable cells reduce the […] to a colored formazan product.

PKCδII [5] = experiment: RT-PCR of PKCδII splicing/mRNA in differentiating 3T3L1 preadipocytes; type: cell-based, mouse
Experimental: as §1
Total RNA was isolated from 3T3L1 cells with RNA-Bee (Tel Test Center) as recommended by the manufacturer. RNA was also obtained from adipose tissues of mice fed with or without resveratrol. 2 μg RNA was used to synthesize first-strand cDNA with an Oligo(dT) primer and Omniscript R kit (Qiagen). The following primers were used in PCR: PKCδ forward primer 5′ […] 3′ (SEQ ID NO:1); reverse primer 5′ […] 3′ (SEQ ID NO:2). These primers amplified PKCδI and PKCδII simultaneously. […] Following PCR, 5% of products were resolved on 6% PAGE gels and detected by silver staining. The PCR reaction was optimized for linear range amplification to allow for quantification of products. […]

Bcl-xL = experiment: Western blot of Bcl-xL in 3T3L1 cells; type: cell-based, mouse; conditions: SEAM treatment (200 nM)
Experimental: as §1, §2

adiponectin = experiment: Western blot of adiponectin in 3T3L1 cells; type: cell-based, mouse; conditions: SEAM treatment, days 4 and 8
Experimental: as §1, §2

PKCδI [6] = experiment: PCR of PKCδI in adipose tissue of mice fed resveratrol; type: in vivo, mouse; conditions: 400 mg resveratrol per kg body weight in diet, once daily
Experimental: (§4) Total RNA was obtained from mouse adipose tissues from Dr. You (University of South Florida). 8-week old male C57BL/6J (Jackson labs) were either fed a chow diet (control) or diet with added 400 mg resveratrol per kg body weight, once daily 23); n=5. Total RNA was extracted from adipose tissues from these mice. All protocols were reviewed and approved by the Institutional Animal Care and Use Committee at University of South Florida, Division of Comparative Medicine.
(§5) Total RNA was isolated from 3T3L1 cells with RNA-Bee (Tel Test Center) as recommended by the manufacturer. RNA was also obtained from adipose tissues of mice fed with or without resveratrol. 2 μg RNA was used to synthesize first-strand cDNA with an Oligo(dT) primer and Omniscript R kit (Qiagen). The following primers were used in PCR: PKCδ forward primer 5′ […] 3′ (SEQ ID NO:1); reverse primer 5′ […] 3′ (SEQ ID NO:2). These primers amplified PKCδI and PKCδII simultaneously. PKCδII-specific antisense primer (5′ […]3′) (SEQ ID NO:3). β-actin forward primer 5′ […] 3′ (SEQ ID NO:4); reverse primer 5′ […] 3′ (SEQ ID NO:5). Following PCR, 5% of products were resolved on 6% PAGE gels and detected by silver staining. The PCR reaction was optimized for linear range amplification to allow for quantification of products. Densitometric analyses of the bands were done using the Un-Scan IT™ Analysis Software (Silk Scientific).

PKCδII [7] = experiment: PCR of PKCδII in adipose tissue of mice fed resveratrol; type: in vivo, mouse; conditions: 400 mg resveratrol per kg body weight in diet, once daily
Experimental: as §4, §5

SIRT1 = conditions: mice, 400 mg resveratrol; earlier studies (23); cited from earlier work
PKCδII [8] = experiment: Western blot of PKCδII expression in differentiating 3T3L1 cells; type: cell-based, mouse; conditions: for inhibition of PKCδII expression levels: 25 μM administered on day 5 (mature adipocyte)
Experimental: as §1, §3

3T3L1 adipocytes [9] = experiment: Oil Red O staining for lipid accumulation; type: cell-based, mouse; conditions: 25 μM on day 4, Oil Red O staining on day 8
Experimental: as §1
3T3L1 preadipocytes were washed with PBS and fixed with 10% formalin for 30 minutes. The cells were then rinsed and incubated with 60% isopropanol for 5 minutes. Oil Red O stain (0.15%, Sigma) was added and incubated for 10 minutes. Images were captured with Nixon confocal microscope.

TNFα = conditions: mice, 400 mg resveratrol; earlier studies (23); cited from earlier work
3T3L1 preadipocytes = experiment: Resveratrol dose finding in differentiating 3T3L1 preadipocytes; type: cell-based, mouse; conditions: doses 10 to 100 μM tested, data not shown
Experimental: as §1
Several studies have shown its role in inhibiting adipose cell proliferation, lipid accumulation and stimulation of apoptosis and lipolysis in mature adipocytes. Further, resveratrol is shown to modulate alternative splicing of genes (29). However, its mechanisms of action and target proteins in apoptotic pathways during adipogenesis was not determined. […] Resveratrol treatment administered on day 5 (mature adipcoyte) inhibited PKCδII expression levels by 65% on day 6 and by more than 90% on day 8 (FIG. 7I a, b, c). Simultaneously, up to a 50% increase in PKCδI levels was observed on days 6 and 8.

CCN(CC)Cc1ccc(/C(C)=C(\C)c2ccc(CN(CC)CC)c(O)c2)cc1O [SEAM]
decrease of Bcl2 levels (Bcl2): 40% | apoptosis levels (3T3L1 adipocytes [1]; 200 nM SEAM, Annexin V-PI staining): increased compared to control | expression levels of other PKC isoforms [2]: did not affect | decrease of PPARγ2 compared to control (PPARγ; SEAM treatment, days 4 and 8): 5% | PKCδI expression (PKCδI [3]; 100 nM, data not shown): not affected | PKCδI levels (PKCδI [3]; SEAM treatment (200 nM)): did not affect | utilization of 5′ splice site II [4]: inhibited | cell viability (3T3L1 cells): viable | inhibition of PKCδII splicing (PKCδII [5]; 100 nM, data not shown): 60% | decrease of PKCδII compared to control cells (PKCδII [5]; 200 nM): 80% | decrease of BclxL levels (Bcl-xL): 20% | decrease of adiponectin compared to control (adiponectin): 20%

Oc1ccc(C=Cc2cc(O)cc(O)c2)cc1 [resveratrol, 3,5,4′-trihydroxystilbene]
adipocytes undergoing apoptosis (3T3L1 adipocytes [1]; 25 μM on day 2, collected on day 8): 70% | increase in PKCδI expression in adipose tissue (PKCδI [6]): 25% | PPARγ2 levels (PPARγ; 25 μM resveratrol, day 8): inhibition of PPARγ2 levels | decline of PPARγ1 levels (PPARγ; 25 μM resveratrol, day 8): 30% | decrease in PKCδII expression in adipose tissue (PKCδII [7]): 70% | SIRT1 levels in adipose tissue (SIRT1): increased | increase in PKCδI levels (PKCδI [3]; 25 μM resveratrol, days 6 and 8): ≤ 50% | decrease in PKCδII expression (PKCδII [8]; 25 μM administered on day 0 (preadipocyte)): less than 10% | inhibition of PKCδII expression levels (PKCδII [8]; read on day 6): 65% | inhibition of PKCδII expression levels (PKCδII [8]; read on day 8): more than 90% | decline in lipid accumulation compared to control (3T3L1 adipocytes [9]): greater than 75% | TNFα levels in adipose tissue (TNFα): decreased | effect on the cells (3T3L1 preadipocytes; 100 μM resveratrol): detrimental to the cells | optimal dose (3T3L1 preadipocytes): 25 µM
